For 23 compounds, GI50 results are on record in US9024018B2, “3-substituted-8-substituted-3H-imidazo[5,1-d][1,2,3,5]tetrazin-4-one compounds and their use” (Pharminox Limited, priority 2009, dated 2015).

What all share (format): cell-based
One assay deals with SNB19V. The experiment in a line: MTT assay for 7-day toxicity, SNB19V glioma cells (vector control, MGMT-). The settings on record: Glioma cell, 168 h, 7 day MTT assay, glioma line SNB19V. On the procedure:
(§1) The cell culture techniques were carried out in a Class II microbiological safety cabinet which was swabbed with 70% IMS in distilled water before each use. Glioma cells were routinely cultured in Costar tissue culture flasks in RPMI 1640 liquid medium (containing 0.3 g/L L-glutamine and 2 g/L sodium bicarbonate) supplemented with 10% heat inactivated FBS (55-59° C.) for 1 hour to denature complement proteins which would otherwise evoke a cellular immune response resulting in cell lysis, 1% non-essential amino acids, 50 μg/mL gentamicin and 400 μg/mL G418 (vector selection reagent). Colorectal and melanoma cells were maintained in RPMI 1640 supplemented with 10% FBS. MRC-5 cells were cultured in EMEM+10% FBS, 1% pen/strep, 1% non-essential amino acids, 1% HEPES (1M) and 1% sodium bicarbonate.
(§2) Cells were grown at 37° C. in a humidified incubator in an atmosphere comprising 95% air/5% CO2. Cells were sub-cultured when growth exceeded approximately 80% confluence, normally twice weekly. The medium was aspirated from the flask and approximately 0.8 mL trypsin-EDTA 1× solution added. The cells were re-incubated at 37° C. until they had visibly detached from the flask. The cells were re-suspended in 5 mL medium and 0.5-1 mL was transferred to a new flask (25 cm^2) with 7 mL culture medium. The cells were further incubated at 37° C. To minimize phenotypic drift, cells were disposed of once they had been subcultured 30 times. New batches of cells were thawed rapidly in 37° C. water bath once taken from liquid nitrogen storage and re-suspended in 10 mL of culture medium in a 25 cm^2 flask. Cells were passaged twice to allow normal growth to resume prior to use in experiments.
(§3) Most test compounds, including temozolomide, were prepared as 100 mM stock solutions in DMSO and stored at −20° C. for not more than 6 months.
(§4) MTT Assay for 7-Day Toxicity Assay
(§5) This assay was first described in Mosmann, T., 1983, “Rapid colorimetric assay for cellular growth and survival: Application to proliferation and cytotoxicity assays”, Journal of Immunological Methods, Vol. 65, Nos. 1-2, pp. 55-63.
(§6) Glioma cell lines, SNB19 and U373, both stably transfected with MGMT (i.e., SNB19M and U373M) or their respective vector controls (i.e., SNB19V and U373V); colorectal carcinoma cell lines, HCT116, HT29, and DLD1; melanoma cell line, SKMEL-28; breast cell line, MCF-7; and normal human fetal lung fibroblast cell line, MRC-5; were used at 60-80% confluence, during the logarithmic phase of growth.
(§7) Following harvesting with trypsin/EDTA, cells in suspension were gently syringed through a 23 gauge needle to obtain a near-single cell suspension. Cells were then seeded into 96-well plates at the desired density in 180 μL culture medium if only one test compound was to be added, or in 160 μL if two test compounds were to be added in combination. Cells were allowed to attach overnight by incubation at 37° C. in 95% air/5% CO2. For the 7 day assay, the cell seeding densities for the different cell lines were as follows: SNB19V, SNB19M: 650 cells/well; U373V, U373M: 650 cells/well; SNB19VR, U373VR: 650 cells/well; HCT116, DLD-1, SKMEL-28, MRC-5, MCF-7: 400 cells/well.
(§8) The two peripheral lanes of each plate were used as blank wells (cell free) and filled with 200 μL of medium in order to minimise medium evaporation from the plate. A separate time zero (T0) plate was set up alongside other plates. Serial dilutions in tissue culture medium of a 100 mM stock of test compound were prepared immediately before each assay to ten times the final concentrations required. 20 μL was added to each well (200 μL total media per well) to achieve final concentrations of 0.5 μM, 1 μM, 5 μM, 10 μM, 50 μM, 100 μM, 500 μM, and 1000 μM. A minimum of four wells received the same test compound concentration. To control wells, including those in the T0 plate, 20 μL of medium was added. […]
In general terms: Formazan colour is commonly taken as a measure of viable cells.

The next assay relates to SNB19M. Put plainly: MTT assay for 7-day toxicity, SNB19M glioma cells (stably transfected with MGMT, MGMT+). To be noted: Glioma cell, 168 h, 7 day MTT assay, glioma line SNB19M. The protocol: as §1, §2, §3, §4, §5, §6, §7, §8
Another assay relates to U373M. The experiment in a line: MTT assay for 7-day toxicity, U373M glioma cells (stably transfected with MGMT, MGMT+). To be noted: Glioma cell, 168 h, 7 day MTT assay, glioma line U373M. The protocol: as §1, §2, §3, §4, §5, §6, §7, §8
A further assay relates to U373V. The experiment in a line: MTT assay for 7-day toxicity, U373V glioma cells (vector control, MGMT-). To be noted: Glioma cell, 168 h, 7 day MTT assay, glioma line U373V. The protocol: as §1, §2, §3, §4, §5, §6, §7, §8

Usually GI50 stands for the concentration giving 50% growth inhibition. `COCn1nnc2c(C(=O)Nc3ccccc3)ncn2c1=O` [LL-002, 3-(Methoxymethyl)-4-oxo-N-phenyl-3,4-dihydroimidazo[5,1-d][1,2,3,5]tetrazine-8-carboxamide]: the 50% growth inhibitory concentration (GI50) in the assay on SNB19V was found to be 55.3 µM; in the assay on SNB19M, 43.8 µM; with U373M, 52.3 µM; in the assay on U373V, 36.3 µM.

Regarding `COCn1nnc2c(/C=C/c3ccc(C#N)cc3)ncn2c1=O` [MM-001, (E)-4-(2-(3-(Methoxymethyl)-4-oxo-3,4-dihydroimidazo[5,1-d][1,2,3,5]tetrazin-8-yl)vinyl)benzonitrile], the concentration for 50% growth inhibition (GI50) in the assay on SNB19V amounted to 9.1 µM; in the assay on SNB19M, 8.9 µM; in the assay on U373M, 8.8 µM; with U373V, 7.7 µM.

Regarding `COCn1nnc2c(/C=C/c3cccs3)ncn2c1=O` [MM-004, (E)-3-(Methoxymethyl)-8-(2-(thiophen-2-yl)vinyl)imidazo[5,1-d][1,2,3,5]tetrazin-4(3H)-one], the GI50 with SNB19V was 4.5 µM; in the assay on SNB19M, 5.1 µM; in the assay with U373M, 6.5 µM; with U373V, 4.4 µM.

`C#CCn1nnc2c(C(=N)NCC(=O)OC)ncn2c1=O` [SS-001, Methyl-2-(4-oxo-3-(prop-2-ynyl)-3,4-dihydroimidazo[5,1-d][1,2,3,5]tetrazine-8-carboximidamido)acetate hydroiodide]: the GI50 came to 59 µM in the assay with SNB19V, 52.7 µM in the assay with SNB19M, 55.1 µM in the assay with U373M and 51.2 µM in the assay with U373V.

Take `Cn1nnc2c(C(N)=O)ncn2c1=O` [TMZ, temozolomide, reference compound]: the concentration for 50% growth inhibition (GI50) was 45.6 µM with SNB19V, 526 µM in the assay with SNB19M, 395 µM with U373M and 72.9 µM with U373V.

For the compound `C#CCn1nnc2c(C(N)=S)ncn2c1=O` [TT-001, 4-oxo-3-(prop-2-ynyl)-3,4-dihydroimidazo[5,1-d][1,2,3,5]tetrazine-8-carbothioamide], the GI50 is 63.2 µM with SNB19V, 54.7 µM with SNB19M, 53.4 µM in the assay on U373M and 42.3 µM with U373V.

On to `Cn1nnc2c(-c3nc(-c4ccc(F)cc4)cs3)ncn2c1=O` [WW-001, 8-(4-(4-Fluorophenyl)thiazol-2-yl)-3-methylimidazo[5,1-d][1,2,3,5]tetrazin-4(3H)-one], for which the GI50 in the assay on SNB19V was under 45 µM; in the assay with SNB19M it was under 70 µM; in the assay on U373M it was under 60 µM; in the assay with U373V, under 75 µM.

Regarding `Cn1nnc2c(-c3nc(-c4ccccc4)cs3)ncn2c1=O` [WW-002], the GI50 with SNB19V is under 45 µM; in the assay on SNB19M, under 70 µM; in the assay with U373M, under 60 µM; with U373V, under 75 µM.

In the case of `CCc1csc(-c2ncn3c(=O)n(C)nnc23)n1` [WW-003, 8-(4-Ethylthiazol-2-yl)-3-methylimidazo[5,1-d][1,2,3,5]tetrazin-4(3H)-one], the GI50 in the assay with SNB19V was under 45 µM; in the assay on SNB19M, under 70 µM; in the assay with U373M, under 60 µM; with U373V it was under 75 µM.

In the case of `C#CCn1nnc2c(-c3nc(-c4ccccc4)cs3)ncn2c1=O` [WW-004, 8-(4-phenylthiazol-2-yl)-3-(prop-2-ynyl)imidazo[5,1-d][1,2,3,5]tetrazin-4(3H)-one], the GI50 with SNB19V is under 45 µM; with SNB19M, under 70 µM; with U373M, under 60 µM; in the assay with U373V, under 75 µM.

As for `C#CCNC(=O)c1csc(-c2ncn3c(=O)n(C)nnc23)n1` [WW-005, 2-(3-Methyl-4-oxo-3,4-dihydroimidazo[5,1-d][1,2,3,5]tetrazin-8-yl)-N-(prop-2-ynyl)thiazole-4-carboxamide], the 50% growth inhibitory concentration (GI50) in the assay on SNB19V was under 45 µM; with SNB19M, under 70 µM; with U373M, under 60 µM; in the assay with U373V, under 75 µM.

On to `Cn1nnc2c(-c3nc(C#N)cs3)ncn2c1=O` [WW-006, 2-(3-Methyl-4-oxo-3,4-dihydroimidazo[5,1-d][1,2,3,5]tetrazin-8-yl)thiazole-4-carbonitrile], for which the values for the GI50 in the assay with SNB19V, in the assay on U373M and with U373V were under 45 µM, under 60 µM and under 75 µM, respectively.

With `Cn1nnc2c(-c3nc(C(N)=O)cs3)ncn2c1=O` [WW-007, 2-(3-Methyl-4-oxo-3,4-dihydroimidazo[5,1-d][1,2,3, 5]tetrazin-8-yl)thiazole-4-carboxamide], the concentration for 50% growth inhibition (GI50) in the assay with SNB19V was under 45 µM; in the assay on SNB19M, under 70 µM; in the assay with U373M, under 60 µM; with U373V, under 75 µM.

Regarding `Cn1nnc2c(-c3nc(C(=O)NC4CC4)cs3)ncn2c1=O` [WW-008, N-Cyclopropyl-2-(3-methyl-4-oxo-3,4-dihydroimidazo[5,1-d][1,2,3, 5]tetrazin-8-yl)thiazole-4-carboxamide], the GI50 is under 45 µM in the assay with SNB19V, under 70 µM with SNB19M, under 60 µM with U373M and under 75 µM in the assay with U373V.

As to `Cn1nnc2c(-c3nc(C(=O)NC(C)(C)C)cs3)ncn2c1=O` [WW-009, N-tert-Butyl-2-(3-methyl-4-oxo-3,4-dihydroimidazo[5,1-d][1,2,3,5]tetrazin-8-yl)thiazole-4-carboxamide], the GI50 was under 45 µM in the assay on SNB19V, under 60 µM in the assay with U373M and under 75 µM in the assay on U373V.

`C#CCn1nnc2c(-c3nc(-c4ccc(Br)cc4)cs3)ncn2c1=O` [WW-021]: the 50% growth inhibitory concentration (GI50) with SNB19M was under 70 µM; with U373M, under 60 µM; in the assay with U373V, under 75 µM.

Consider `CSCn1nnc2c(-c3nc(-c4ccccc4)cs3)ncn2c1=O` [WW-030, 3-(Methylthiomethyl)-8-(4-phenylthiazol-2-yl)imidazo[5,1-d][1,2,3,5]tetrazin-4(3H)-one], for which the GI50 in the assay on SNB19M is under 70 µM; with U373M, under 60 µM; in the assay on U373V, under 75 µM.

With `COCn1nnc2c(-c3nc(-c4ccc5c(c4)OCO5)cs3)ncn2c1=O` [WW-032], the GI50 was under 70 µM in the assay with SNB19M, under 60 µM in the assay with U373M and under 75 µM in the assay with U373V.

With `CSCn1nnc2c(-c3nc(-c4cccs4)cs3)ncn2c1=O` [WW-034, 3-(methylthiomethyl)-8-(4-(thiophen-2-yl)thiazol-2-yl)imidazo[5,1-d][1,2,3,5]tetrazin-4(3H)-one], the results for the GI50 with SNB19M, in the assay on U373M and in the assay on U373V were under 70 µM, under 60 µM and under 75 µM, respectively.

As to `CSCn1nnc2c(-c3nc(-c4ccsc4)cs3)ncn2c1=O` [WW-035, 3-(methylthiomethyl)-8-(4-(thiophen-3-yl)thiazol-2-1/1)imidazo[5,1-d][1,2,3,5]tetrazin-4(3H)-one], the GI50 was under 70 µM in the assay on SNB19M, under 60 µM with U373M and under 75 µM in the assay with U373V.

As for `COCn1nnc2c(-c3ncc(-c4ccc(Br)cc4)o3)ncn2c1=O` [WW-039], the 50% growth inhibitory concentration (GI50) was under 70 µM in the assay on SNB19M, under 60 µM in the assay on U373M and under 75 µM in the assay on U373V.

For the compound `C#CCn1nnc2c(-c3ncc(-c4ccccc4)o3)ncn2c1=O` [WW-040], the results for the GI50 with SNB19M, with U373M and in the assay with U373V were under 70 µM, under 60 µM and under 75 µM, respectively.

For `COCn1nnc2c(-c3nnc(NCc4ccccc4)o3)ncn2c1=O` [WW-046, 8-(5-(Benzylamino)-1,3,4-oxadiazol-2-yl)-3-(methoxymethyl)imidazo[5,1-d][1,2,3,5]tetrazin-4(3H)-one], the concentration for 50% growth inhibition (GI50) in the assay with SNB19M was under 70 µM; in the assay with U373M it was under 60 µM; with U373V, under 75 µM.
